Assay results: publication PMC7321161, “The Intriguing Effects of Substituents in the N-Phenethyl Moiety of Norhydromorphone: A Bifunctional Opioid from a Set of “Tail Wags Dog” Experiments” (Molecules, 2020)
“And” between values parts separate entries of the source, which are not always exact repeats. Equal entries are not always repeated. “Also recorded” adds a separate entry of the source. Where two headings read alike, the source gives them in different places.

Experiments:
μ-opioid receptor (MOR) = target: T1, μ-opioid receptor (MOR) (Rattus norvegicus, UniProt P33535); experiment: Opioid receptor binding, μ sites ([3H]DAMGO), rat brain homogenate
T1 construct: Frozen whole rat brains excluding cerebellum were thawed on ice; from tissue; host or cells: whole rat brain excluding cerebellum, membrane homogenate
T1 sequence (P33535 whole entry): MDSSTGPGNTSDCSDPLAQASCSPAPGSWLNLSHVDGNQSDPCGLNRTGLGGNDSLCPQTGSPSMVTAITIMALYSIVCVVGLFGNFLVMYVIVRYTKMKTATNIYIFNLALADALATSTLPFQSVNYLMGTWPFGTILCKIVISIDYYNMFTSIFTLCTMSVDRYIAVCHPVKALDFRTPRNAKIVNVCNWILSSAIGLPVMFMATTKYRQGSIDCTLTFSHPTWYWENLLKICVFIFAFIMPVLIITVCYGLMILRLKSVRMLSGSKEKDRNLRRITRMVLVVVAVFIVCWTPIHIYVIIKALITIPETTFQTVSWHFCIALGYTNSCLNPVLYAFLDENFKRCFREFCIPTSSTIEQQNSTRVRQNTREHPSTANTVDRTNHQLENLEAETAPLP

δ-opioid receptor (DOR) = target: T2, δ-opioid receptor (DOR) (Rattus norvegicus, UniProt P33533); experiment: Opioid receptor binding, δ sites ([3H]DADLE), rat brain homogenate
T2 construct: Frozen whole rat brains excluding cerebellum were thawed on ice; from tissue; host or cells: whole rat brain excluding cerebellum, membrane homogenate
T2 sequence (P33533 whole entry): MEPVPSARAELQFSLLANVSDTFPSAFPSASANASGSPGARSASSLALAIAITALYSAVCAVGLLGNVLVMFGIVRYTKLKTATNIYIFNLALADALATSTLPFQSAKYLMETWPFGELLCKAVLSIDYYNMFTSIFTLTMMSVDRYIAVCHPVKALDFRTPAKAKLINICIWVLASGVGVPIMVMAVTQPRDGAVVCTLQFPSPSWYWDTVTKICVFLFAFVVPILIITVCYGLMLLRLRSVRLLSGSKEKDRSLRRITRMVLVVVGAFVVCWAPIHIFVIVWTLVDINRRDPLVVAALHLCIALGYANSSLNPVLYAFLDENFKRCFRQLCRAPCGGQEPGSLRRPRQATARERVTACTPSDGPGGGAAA

κ-opioid receptor (KOR) = target: T3, κ-opioid receptor (KOR) (Rattus norvegicus, UniProt P34975); experiment: Opioid receptor binding, κ sites ([3H]U69,593), rat brain homogenate; details: for Ki: KOR Binding (Ki), whole rat brain excluding cerebellum, [3H]U69,593, Ki ± SEM
T3 construct: Frozen whole rat brains excluding cerebellum were thawed on ice; from tissue; host or cells: whole rat brain excluding cerebellum, membrane homogenate
T3 sequence (P34975 whole entry): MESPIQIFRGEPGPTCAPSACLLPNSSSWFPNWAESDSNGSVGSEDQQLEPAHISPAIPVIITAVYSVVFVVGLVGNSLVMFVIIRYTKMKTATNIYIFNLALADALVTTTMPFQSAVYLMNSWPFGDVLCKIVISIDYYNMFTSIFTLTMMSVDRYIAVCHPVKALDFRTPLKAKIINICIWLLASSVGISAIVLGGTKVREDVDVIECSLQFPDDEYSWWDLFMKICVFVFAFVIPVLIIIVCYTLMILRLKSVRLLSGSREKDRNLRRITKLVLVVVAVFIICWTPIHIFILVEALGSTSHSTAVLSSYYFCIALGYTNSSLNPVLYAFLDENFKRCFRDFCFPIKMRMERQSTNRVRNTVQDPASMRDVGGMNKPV

rat MOR = target: T4, rat MOR (Rattus norvegicus, UniProt P33535); experiment: Stimulation of [35S]GTPγS binding, C6 glioma cell membranes expressing MOR; format: biochemical; details: for MOR activity type in the [35S]GTPγS assay: antagonist activity assumed from high MOR affinity and lack of stimulation; for MOR % Stimulation, [35S]GTPγS: compared to standard maximal DAMGO
T4 construct: expressed in transfected cells; host or cells: C6 rat glioma cells, stably transfected; membranes
T4 sequence (P33535 whole entry): as the sequence (P33535 whole entry) above

rat DOR = target: T5, rat DOR (Rattus norvegicus, UniProt P33533); experiment: Stimulation of [35S]GTPγS binding, C6 glioma cell membranes expressing DOR; format: biochemical; details: for EC50: DOR EC50, [35S]GTPγS, C6 cells expressing DOR, mean ± SEM; for DOR % Stimulation, [35S]GTPγS: compared to standard maximal DPDPE
T5 construct: expressed in transfected cells; host or cells: C6 rat glioma cells, stably transfected; membranes
T5 sequence (P33533 whole entry): as the sequence (P33533 whole entry) above

human KOR = target: T6, human KOR (Homo sapiens, UniProt P41145); experiment: Stimulation of [35S]GTPγS binding, CHO cell membranes expressing KOR; format: biochemical; details: CHO cells expressing KOR; mean ± SEM; DNS = no stimulation
T6 construct: expressed in transfected cells; membranes
T6 sequence (P41145 whole entry): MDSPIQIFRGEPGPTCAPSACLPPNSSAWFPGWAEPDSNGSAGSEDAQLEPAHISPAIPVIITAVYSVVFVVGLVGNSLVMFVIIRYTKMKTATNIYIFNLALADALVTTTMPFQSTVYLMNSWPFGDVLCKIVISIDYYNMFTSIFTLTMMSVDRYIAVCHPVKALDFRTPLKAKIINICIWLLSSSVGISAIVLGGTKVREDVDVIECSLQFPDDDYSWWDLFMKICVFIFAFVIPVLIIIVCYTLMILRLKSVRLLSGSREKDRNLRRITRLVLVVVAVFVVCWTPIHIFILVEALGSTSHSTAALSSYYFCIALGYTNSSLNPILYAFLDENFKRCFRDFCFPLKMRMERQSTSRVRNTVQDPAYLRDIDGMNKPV

[1] = target: T7, human μ-opioid receptor (OPRM1) (Homo sapiens, UniProt P35372); experiment: cell-based; details: for EC50: MOR cAMP Agonist Potency ± SEM; for Emax: OPRM1, read-out: MOR cAMP % Efficacy
T7 construct: host or cells: HitHunter CHO-K1 cells
T7 sequence (P35372 whole entry): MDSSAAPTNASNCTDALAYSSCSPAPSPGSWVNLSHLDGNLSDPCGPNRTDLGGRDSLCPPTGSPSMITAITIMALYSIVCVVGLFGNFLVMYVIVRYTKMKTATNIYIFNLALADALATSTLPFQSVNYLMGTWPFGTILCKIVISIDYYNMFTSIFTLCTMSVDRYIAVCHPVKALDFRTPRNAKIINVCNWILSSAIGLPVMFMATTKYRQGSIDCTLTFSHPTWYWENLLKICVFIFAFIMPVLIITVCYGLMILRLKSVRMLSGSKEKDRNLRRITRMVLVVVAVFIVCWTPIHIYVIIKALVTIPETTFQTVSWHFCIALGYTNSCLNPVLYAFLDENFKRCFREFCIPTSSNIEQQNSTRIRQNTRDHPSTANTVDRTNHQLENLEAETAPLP

[2] = target: T8, human δ-receptor (OPRMD1) (Homo sapiens, UniProt P41143); experiment: cell-based; format: cell-based; details: for Emax: CHO-K1, read-out: DOR cAMP % Efficacy; for EC50: DOR cAMP Agonist Potency ± SEM
T8 construct: host or cells: HitHunter CHO-K1 cells
T8 sequence (P41143 whole entry): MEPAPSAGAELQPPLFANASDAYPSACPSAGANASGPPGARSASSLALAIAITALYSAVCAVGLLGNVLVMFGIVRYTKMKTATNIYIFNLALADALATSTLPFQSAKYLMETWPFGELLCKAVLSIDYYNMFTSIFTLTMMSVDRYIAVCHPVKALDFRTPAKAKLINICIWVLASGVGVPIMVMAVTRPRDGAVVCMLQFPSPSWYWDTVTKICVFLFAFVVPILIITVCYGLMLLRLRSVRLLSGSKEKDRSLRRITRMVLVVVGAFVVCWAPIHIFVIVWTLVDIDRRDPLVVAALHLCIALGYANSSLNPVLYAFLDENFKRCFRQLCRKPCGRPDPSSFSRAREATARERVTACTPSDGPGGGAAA

[3] = target: T9, human κ-opioid receptor (OPRK1) (Homo sapiens, UniProt P41145); experiment: cell-based; details: for Emax: CHO-K1, read-out: KOR cAMP % Efficacy; for EC50: KOR cAMP Agonist Potency ± SEM
T9 construct: host or cells: HitHunter CHO-K1 cells
T9 sequence (P41145 whole entry): as the sequence (P41145 whole entry) above

[4] = target: T10, human μ-opioid receptor β-arrestin-2 (Homo sapiens, UniProt P35372); experiment: cell-based; details: for Emax: read-out: MOR Mediated β-arrestin Recruitment (% Control, Emax DAMGO)
T10 construct: enzyme fragment for EFC (β-galactosidase ProLink fragment, by own knowledge of the PathHunter system); host or cells: PathHunter CHO cells
T10 sequence (P35372 whole entry, the tested form may be a part): as the sequence (P35372 whole entry) above

squirrel monkeys [5] = experiment: Warm-water tail-withdrawal latency in squirrel monkeys; format: in vivo, Saimiri sciureus; details: for ED50: Saimiri, in Primates; for Antinociceptive effect, tail withdrawal latency at 50, 52 and 55 °C: cumulative doses
[6] = Squirrel monkey ventilation (whole-body plethysmograph, air or 5% CO2); format: in vivo, Saimiri sciureus; details: male, monkey, in vivo, other: injection; squirrel monkeys; dose required to decrease minute volume in 5% CO2 to 50% of baseline; read-out: ED50 Respiratory Depression
Protocol: (§1) Gas (either air or a 5% CO2 in air mixture) was introduced to and extracted from the chamber at a constant flow rate of 5 L/min. Experimental sessions consisted of 4–6 consecutive 30 min cycles, each comprising a 15 min exposure to air followed by a 15 min exposure to 5% CO2. Drug effects were determined using cumulative dosing procedures, and injections were administered following each exposure to 5% CO2. Respiratory rate and tidal volume (mL/breath) were recorded over 1 min periods and were multiplied to provide minute volumes. Data from the last three minutes of each exposure to air or CO2 were averaged and used for analysis of drug effects on ventilation.

squirrel monkeys [7] = experiment: as above; format: in vivo, Saimiri sciureus
Protocol: as §1

[8] = Operant responding (FR10 food reinforcement) in squirrel monkeys; details: male, monkey, in vivo
squirrel monkeys [9] = experiment: as above; details: squirrel monkeys
Swiss Webster mice = experiment: Respiration rate and arterial oxygen saturation in mice (MouseOx pulse oximeter); details: for Effect on oxygen saturation (SpO2) in mice: 6 min to 45 min post-injection, data not shown; for Effect on respiration rate in mice: normal air, s.c., 2i 0.01–0.1 mg/kg, morphine 10 mg/kg, AUC 6–45 min post injection, vs saline
[10] = dose required to increase tail withdrawal latency to 5 s, read-out: ED50 Antinociception (52 °C)

Compound | Ki (μ-opioid receptor (MOR)) [nM] | Ki (δ-opioid receptor (DOR)) [nM] | Ki (κ-opioid receptor (KOR)) [nM] | EC50 (rat MOR) [nM] | MOR activity type in the [35S]GTPγS assay (rat MOR) | MOR % Stimulation, [35S]GTPγS (rat MOR) [%] | DOR activity type in the [35S]GTPγS assay (rat DOR) | EC50 (rat DOR) [nM] | KOR EC50, [35S]GTPγS (human KOR) | EC50 [1] [nM] | Emax [1] [%] | Emax [2] [%] | EC50 [2] [nM] | Emax [3] [%] | EC50 [3] | Bias Factor [4] | EC50 [4] [nM] | Emax [4] [%] | DOR % Stimulation, [35S]GTPγS (rat DOR) [%] | ED50 (squirrel monkeys [5]; [10]) [mg/kg] | other results
O=C1CCC2C3Cc4ccc(O)c5c4[C@@]2(CCN3CCc2ccc(F)cc2)[C@H]1O5 (stereo partly drawn) [Compound 2e, (7aR,12bS)-9-Hydroxy-3-(4-fluorophenethyl)-2,3,4,4a,5,6-hexahydro-1H-4,12-methanobenzofuro[3,2-e]-isoquinolin-7(7aH)-one] | 0.87 ± 0.1 | 13.4 ± 0.9 | 44.3 ± 6 | 2.5 ± 0.3 | potent partial MOR agonist | 42.6 ± 2.9 | weak partial DOR agonist | 64.2 ± 9.9 | DNS | 0.17 | 101 | 98.1 | 2.58 | 80 | 19.9 nM | 1.39 | 15.5 | 45.8 | – | – | –
O=C1CCC2C3Cc4ccc(O)c5c4[C@@]2(CCN3CCc2cccc(F)c2)[C@H]1O5 (stereo partly drawn) [Compound 2f, (7aR,12bS)-9-Hydroxy-3-(3-fluorophenethyl)-2,3,4,4a,5,6-hexahydro-1H-4,12-methanobenzofuro[3,2-e]-isoquinolin-7(7aH)-one] | 0.49 ± 0.07 | 4.48 ± 0.43 | 30.2 ± 2.3 | 2.4 ± 0.3 | – | 56.8 ± 7.5 | – | 54.1 ± 4.7 | DNS | 0.06 | 102 | 96.9 | 1.64 | 58 | 56.5 nM | 1.94 | 6.2 | 40.3 | 86.7 ± 8.0 | – | –
O=C1CCC2C3Cc4ccc(O)c5c4[C@@]2(CCN3CCc2ccccc2F)[C@H]1O5 (stereo partly drawn) [Compound 2g, (7aR,12bS)-9-Hydroxy-3-(2-fluorophenethyl)-2,3,4,4a,5,6-hexahydro-1H-4,12-methanobenzofuro[3,2-e]-isoquinolin-7(7aH)-one] | 0.32 ± 0.04 | 3.57 ± 0.49 | 23.2 ± 2.8 | 2.1 ± 0.7 | – | 100 ± 0.3 | – | 92.7 ± 17 | DNS | 0.01 | 101 | 93.8 | 0.26 | 74 | 19.9 nM | 1.37 | 1.7 | 73.2 | 83.0 ± 3.3 | – | –
O=C1CCC2C3Cc4ccc(O)c5c4[C@@]2(CCN3CCc2ccc(Cl)cc2)[C@H]1O5 (stereo partly drawn) [Compound 2i, (7aR,12bS)-3-(4-Chlorophenethyl)-9-hydroxy-2,3,4,4a,5,6-hexahydro-1H-4,12-methanobenzofuro[3,2-e]-isoquinolin-7(7aH)-one] | 1.09 ± 0.06 | 7.89 ± 1.1 | – | 2 ± 1 | potent partial MOR agonist | 39.0 ± 2.1 | potent full DOR agonist | 2.4 ± 0.7 | – | 0.05 | 98.8 | 84.8 | 0.53 | 76.6 | 55 nM and 55.2 nM | 0.82 | 2.44 | 44.8 | 83.8 ± 3.7 | 0.015 | δ/μ ratio in opioid receptor binding studies (δ-opioid receptor (DOR); DOR Ki / MOR Ki): about 7; KOR Binding, exploratory binding assay (κ-opioid receptor (KOR); radioligand displacement at 100 nM): NT (NT = not tested—inactive (<50% activity at 100 nM concentration in exploratory binding assays (displaced less than half of radioligand)); EC50 δ/μ ratio in the cAMP assay [2]: 10; ED50 (squirrel monkeys [5]; read-out: ED50 Antinociception (50 °C), tail withdrawal, 50 °C water): 0.01 mg/kg; Antinociceptive effect, tail withdrawal latency at 50, 52 and 55 °C (squirrel monkeys [5]): full effect at moderate (50 °C) and hot (52 °C) but not at very hot (55 °C) water temperatures; ED50 [6]: 0.057 mg/kg; Effect on ventilation (minute volume) during exposure to 5% CO2 mixed in air (hypercapnia) (squirrel monkeys [7]): significantly reduced minute volume in 5% CO2; also recorded: respiration was depressed; also recorded: significantly decreased ventilation; Effect on respiratory rate or ventilation (minute volume) during exposure to air alone (squirrel monkeys [7]; 2i 0.003–0.1 mg/kg, morphine 0.03–3.0 mg/kg): did not depress respiration; also recorded: neither 2i (0.003–0.1 mg/kg) nor morphine (0.03–3.0 mg/kg) had effects; ED50 [8]: 0.022 mg/kg; Behavioral impairment (decreases in operant performance, reinforcers obtained) (squirrel monkeys [9]): dose-related behavioral impairment; Effect on oxygen saturation (SpO2) in mice (Swiss Webster mice): neither morphine nor 2i had any effect; Effect on respiration rate in mice (Swiss Webster mice): did not depress respiration rate; also recorded: no effect on respiration rate
CN1CC[C@]23c4c5ccc(O)c4O[C@H]2[C@@H](O)C=C[C@H]3[C@H]1C5 [Morphine, reference compound] | – | – | – | – | – | – | – | – | – | – | – | – | – | – | – | – | – | – | – | 0.14 | Antinociceptive effect, tail withdrawal latency at 50, 52 and 55 °C (squirrel monkeys [5]): full antinociceptive effects at all three water temperatures; ED50 [6]: 1.06 mg/kg; ED50 [8]: 1.3 mg/kg; Behavioral impairment (decreases in operant performance, reinforcers obtained) (squirrel monkeys [9]): dose-related behavioral impairment; Effect on oxygen saturation (SpO2) in mice (Swiss Webster mice): neither morphine nor 2i had any effect; Effect on respiration rate in mice (Swiss Webster mice): significantly reduced respiratory rate; Effect on respiration rate in mice (Swiss Webster mice; listed as morphine): significantly reduced; also recorded: significantly decreased respiratory rate
